Reference: US20100286186A1, “NOVEL DICARBOXYLIC ACID LINKED AMINO ACID AND PEPTIDE PRODRUGS OF OPIOIDS AND USES THEREOF” (Shire LLC, priority 2009, published 2010)
Where “and” joins values, the source holds several entries; their conditions need not be identical. Equal values may be shown once. Marks after values point to notes of the source that are not given here.

What was measured:
[1] = test system: guinea pig small intestine myenteric plexus longitudinal muscle; assay: Ex vivo smooth muscle contractility, electrical field stimulation response of isolated guinea pig small intestine; conditions: for EC50: Cavia porcellus, isolated guinea pig ileum, concentration as free base of opioid, read-out: EC50, opioid effect on electrical field stimulation response
[2] = Bioavailability of oxycodone, codeine and dihydrocodeine from their succinyl valine ester prodrugs in the dog (oral gavage, two-way crossover); conditions: dogs; for T>50%Cmax of oxycodone: 1 mg free base equivalents oxycodone/kg; for T>50%Cmax of dihydrocodeine: 1 mg free base equivalents dihydrocodeine/kg
Procedure: The characteristics of the test animals are set out in Table 10, below.
Blood samples were taken at various times after administration and submitted to analysis for the parent drug and pro-drug using a validated LC-MS-MS assay. Pharmacokinetic parameters derived from the plasma analytical data were determined using Win Nonlin.

[3] = test system: gut motility in the rat; assay: Charcoal propulsion test of GI motility in the rat; format: in vivo; conditions: oral; for delay of the passage of the charcoal meal (gut motility): 30 mg/kg or equimolar dose
Procedure: Test treatments were administered to groups of up to 10 rats fasted overnight prior to the test.
Test treatments were administered orally 60 minutes prior to a 2.0 mL oral dose of a 10% suspension of charcoal in 5% gum arabic. Thirty minutes after dosing with charcoal, the rats were sacrificed and the entire gastro-intestinal tract quickly and carefully removed. The distance the charcoal meal had traveled from the pyloric sphincter toward the caecum was measured and expressed as a percentage of both the total gut length and the length of the small intestine.

[4] = Comparative oral bioavailability of oxycodone from various dicarboxylate bridged amino acid prodrugs in dogs (nine-way crossover); format: in vivo, dog; conditions: 1 mg/kg oxycodone free base, mean (±sd)
[5] = Comparative pharmacokinetics of oxycodone in the cynomolgus monkey after oral administration
[6] = In vitro stability of dicarboxylate amino acid ester prodrugs in simulated gastric and intestinal juice, distilled water and pH 10 buffer (HPLC)
[7] = Comparative pharmacokinetics of oxycodone after oral administration to female Sprague Dawley rats; conditions: 10 mg oxycodone free base equivalents/kg; for T>50%Cmax of oxycodone: oral
[8] = Systemic availability of oxycodone after intranasal insufflation to dogs; conditions: nominal […] equivalents; for half-life: t½ of intact prodrug
[9] = in vivo; cited from earlier work
[10] = Plasma pharmacokinetics of meptazinol dicarboxylate linked prodrugs after oral gavage to dogs; format: in vivo, dog; conditions: dog, plasma, 1 mg meptazinol base equivalents/kg body weight, oral, read-out: expected Cmax of meptazinol after giving the drug itself
[11] = cited from earlier work
[12] = in vivo; cited from earlier work; remark: listed apart in the source
[13] = rat model; cited from earlier work
[14] = oral gavage, individual dogs 1-5
[15] = male cynomolgus monkeys, oral prodrug, 1 mg oxycodone free base equivalents/kg, individual monkeys 1-5
[16] = male cynomolgus monkeys, oral, 1 mg oxycodone free base equivalents/kg, mean (n=5)
[17] = oral prodrug, individual rats, listed as Oxycodone succinyl valine enol ester

COc1ccc2c3c1O[C@H]1[C@@H](OC(=O)CCC(=O)NC(C(=O)O)C(C)C)C=CC4[C@@H](C2)N(C)CC[C@@]341 (stereo in doubt) [Codeine-[succinyl-(S)-valine] ester, codeine-[succinyl-(S)-valine]ester]
EC50 [1]: 6.3 µM
reduction in potency compared to parent drug ([1]; guinea pig ileal smooth muscle): 50%
T>50%Cmax of codeine ([2]; oral gavage, 1 mg free base equivalents codeine/kg, median (n=5)): 2 h
delay of the passage of the charcoal meal (gut motility) [3]: less than half the amount of codeine

COc1ccc2c3c1O[C@H]1C(OC(=O)CCC(=O)NC(C(=O)O)C(C)C)=CC[C@@]4(O)[C@@H](C2)N(C)CC[C@]314 (stereo in doubt) [oxycodone-[succinyl-(S)-valine] enol ester]
EC50 [1]: 2 µM
reduction in the opioid effects compared to oxycodone itself ([1]; guinea pig ileal smooth muscle): 10 fold
T>50%Cmax of oxycodone [2, 14]: 1.5 h (3×) and 2.5 h (2×)
T>50%Cmax of oxycodone ([2]; oral gavage, median (n=5)): 1.5^a h
period for which plasma concentrations were maintained above 50% of Cmax, compared to the drug itself ([2]; oral, oxycodone in plasma): three times longer
T50% Cmax of oxycodone [4]: 1.6 (±0.3) h.
AUCt of intact prodrug [5, 15]: 0.76 ng·h/mL and 1.70 ng·h/mL and 0.39 ng·h/mL and 0.32 ng·h/mL and 0.71 ng·h/mL
Cmax of intact prodrug [5, 15]: 1.29 ng/mL and 2.92 ng/mL and 0.57 ng/mL and 0.42 ng/mL and 1.02 ng/mL
T>50%Cmax of oxycodone ([5]; male cynomolgus monkeys, oral, 1 mg oxycodone free base equivalents/kg, individual monkeys 1-5): 1.54 h and 1.63 h and 3.45 h and 4.43 h and 1.38 h
T>50%Cmax of oxycodone [5, 16]: 2.49 h
T>50%Cmax of oxycodone ([5]; male cynomolgus monkeys, oral, 1 mg oxycodone free base equivalents/kg, mean (n=5), listed as oxycodone succinyl valine ester): 2.5 h
AUC(0-t) ([5]; male, cynomolgus monkey, plasma, po, 1 mg oxycodone base equivalents/kg, AUCt of intact prodrug, male cynomolgus monkeys, oral prodrug, 1 mg oxycodone free base equivalents/kg, mean (n=5)): 0.78 ng·h/mL
Cmax ([5]; male, cynomolgus monkey, plasma, po, 1 mg oxycodone base equivalents/kg, Cmax of intact prodrug, male cynomolgus monkeys, oral prodrug, 1 mg oxycodone free base equivalents/kg, mean (n=5)): 1.24 ng/mL
prodrug Cmax as % of Cmax of the active drug ([5]; monkeys, oral prodrug): ~7%
AUC of oxycodone ([5]; monkeys, oral, 1 mg oxycodone base equivalents/kg): 42.3 ng/h/mL
Simulated gastric fluid (pH 1.1): % remaining after 2 h/37° C. ([6]; pH 1.1, 2 h, 37° C.): 98%
Distilled water (pH 5.9): % remaining after 2 h/20° C. ([6]; pH 5.9, 2 h, 20° C.): 100%
Simulated intestinal fluid (pH 6.8): % remaining after 2 h/37° C. ([6]; pH 6.8, 2 h, 37° C.): 85%
pH 10.0 buffer: % remaining after 2 h/20° C. ([6]; pH 10.0, 2 h, 20° C.): 64%
% change from vehicle-treated animals, small intestine ([3]; 10 mg/kg): −12.1%
% change from vehicle-treated animals, total gut length ([3]; 10 mg/kg): −11.2%
% change from vehicle-treated animals, small intestine ([3]; 30 mg/kg): −15.8%
% change from vehicle-treated animals, total gut length ([3]; 30 mg/kg): −15.6%
delay of the passage of the charcoal meal (gut motility) [3]: ~16%
% change from vehicle-treated animals, small intestine ([3]; 100 mg/kg): −35.4%
% change from vehicle-treated animals, total gut length ([3]; 100 mg/kg): −35.0%
AUC(0-t) ([7]; female, Sprague Dawley, rat, plasma, po, AUCt of intact prodrug, oral prodrug, mean (BLQ taken as zero)): 1.24 ng·h/mL
Cmax ([7]; female, Sprague Dawley, rat, plasma, po, Cmax of intact prodrug, oral prodrug, mean (BLQ taken as zero)): 2.35 ng/mL
Tmax ([7]; female, Sprague Dawley, rat, plasma, po, Tmax of intact prodrug, oral prodrug, median): 22.5 min
AUCt of intact prodrug [7, 17]: 3.53 ng · h/mL and 2.55 ng · h/mL and BLQ (2×) and 0.131 ng · h/mL
Cmax of intact prodrug [7, 17]: 6.77 ng/mL and 2.00 ng/mL and BLQ and 1.93 ng/mL and 1.05 ng/mL
Tmax of intact prodrug [7, 17]: 90 min
T>50%Cmax of oxycodone ([7]; individual rats, listed as Oxycodone succinyl valine enol ester): 11.8 h (2×) and 3.5 h and 3.75 h and 2 h
T>50%Cmax of oxycodone ([7]; median, listed as Oxycodone succinyl valine enol ester): 3.75^a h
T>50%Cmax of oxycodone ([7]; median, listed as oxycodone succinyl valine ester): 3.75 h
AUC ([8]; male, beagle, dog, plasma, other: intranasal insufflation, 0.25 mg oxycodone free base equivalents/kg, AUC of intact prodrug, mean): 10.3 ng·h/mL
AUC(0-t) ([8]; male, beagle, dog, plasma, other: intranasal insufflation, 0.25 mg oxycodone free base equivalents/kg, AUCt of intact prodrug, mean): 5.93 ng·h/mL
Cmax ([8]; male, beagle, dog, plasma, other: intranasal insufflation, 0.25 mg oxycodone free base equivalents/kg, Cmax of intact prodrug, mean): 4.87 ng/mL
Tmax ([8]; male, beagle, dog, plasma, other: intranasal insufflation, 0.25 mg oxycodone free base equivalents/kg, Tmax of intact prodrug, median): 15 min
half-life ([8]; male, beagle, dog, plasma, other: intranasal insufflation, 0.25 mg oxycodone free base equivalents/kg, calculated as ln2/mean k): 45 min
half-life ([8]; male, beagle, dog, plasma, other: intranasal insufflation, 0.25 mg oxycodone free base equivalents/kg, individual dogs): 51 min
Tmax of intact prodrug ([8]; individual dogs): 60 min

COc1ccc2c3c1O[C@H]1[C@@H](O)CC[C@H]4[C@@H](C2)N(C)CC[C@@]341 [Dihydrocodeine, dihydrocodeine, reference compound]
EC50 [1]: 5 µM
T>50%Cmax of dihydrocodeine [2, 14]: 0.5 h
T>50%Cmax of dihydrocodeine ([2]; oral gavage, median (n=5)): 0.5^a h
T>50%Cmax of dihydrocodeine ([2]; oral gavage, median (n=5), listed as dihydrocodeine): 0.5 h
delay of the passage of the charcoal meal (gut motility) [3]: ~30%

CCC1(c2cccc(O)c2)CCCCN(C)C1 (stereo not drawn) [Meptazinol, meptazinol, reference compound]
oral bioavailability [9]: < 10%
Cmax [10]: 2 to 5 ng/mL

COc1ccc2c3c1O[C@H]1C(=O)CC[C@@]4(O)[C@@H](C2)N(C)CC[C@]314.Cl [Oxycodone HCl, oxycodone hydrochloride, reference compound]
T>50%Cmax of oxycodone [2, 14]: 0.5 h
T>50%Cmax of oxycodone ([2]; oral gavage, median (n=5)): 0.5^a h
T50% Cmax of oxycodone [4]: 2.0 (±0.6) h.
T>50%Cmax of oxycodone ([5]; male cynomolgus monkeys, oral, 1 mg oxycodone free base equivalents/kg, individual monkeys 1-5, hydrochloride): 1.84 h and 1.18 h and 1.89 h and 2.37 h and 1.79 h
T>50%Cmax of oxycodone [5, 16]: 1.81 h
T>50%Cmax of oxycodone ([7]; individual rats, hydrochloride): 1.75 h (2×) and 0.75 h (2×) and 0.5 h
T>50%Cmax of oxycodone ([7]; median): 0.75^a h

COc1ccc2c3c1O[C@H]1[C@@H](OC(=O)CCC(=O)N[C@H](C(=O)O)C(C)C)CCC4[C@@H](C2)N(C)CC[C@@]341 (stereo partly drawn) [dihydrocodeine-[succinyl-(S)-valine]ester]
EC50 [1]: 20 µM
T>50%Cmax of dihydrocodeine ([2]; oral gavage, median (n=5)): 2 h
delay of the passage of the charcoal meal (gut motility) [3]: 8.5%

CCC(=O)Oc1ccc2c3c1O[C@H]1[C@@H](O)C=C[C@H]4[C@@H](C2)N(C)CC[C@@]341 [morphine-3-propionate]
half-life of hydrolysis in human plasma [11]: less than 5 minutes

CC(C)[C@H](N)C(=O)OCCOCn1cnc2c(=O)nc(N)[nH]c21 [valine ester of acyclovir]
chemical degradation in the GI tract before absorption [12]: 15-25%

(Z)-3-[2-(propionyloxy)phenyl]-2-propanoic ester
bioavailability over meptazinol itself [13]: significant increase in bioavailability
